Laboratory results: ChEMBL document CHEMBL1773059, “NMS-P937, a 4,5-dihydro-1H-pyrazolo[4,3-h]quinazoline derivative as potent and selective Polo-like kinase 1 inhibitor” (Bioorg Med Chem Lett, 2011)
In brackets after ≈: the same amount, converted by molar mass.

Key:
[1] = target: Serine/threonine-protein kinase Chk1 (Homo sapiens, UniProt O14757); test: Inhibition of CHK1 assessed as [33P]gamma-ATP incorporation into substrate after 60 mins by gamma counting
Caco-2 = test: Apparent permeability of the compound across human Caco2 cells; assay type: ADME, cell-based
[2] = target: Mitogen-activated protein kinase 1 (Homo sapiens, UniProt P28482); test: Inhibition of ERK2 assessed as [33P]gamma-ATP incorporation into substrate after 60 mins by gamma counting
Chain of Mitogen-activated protein kinase 1 (P28482 whole entry): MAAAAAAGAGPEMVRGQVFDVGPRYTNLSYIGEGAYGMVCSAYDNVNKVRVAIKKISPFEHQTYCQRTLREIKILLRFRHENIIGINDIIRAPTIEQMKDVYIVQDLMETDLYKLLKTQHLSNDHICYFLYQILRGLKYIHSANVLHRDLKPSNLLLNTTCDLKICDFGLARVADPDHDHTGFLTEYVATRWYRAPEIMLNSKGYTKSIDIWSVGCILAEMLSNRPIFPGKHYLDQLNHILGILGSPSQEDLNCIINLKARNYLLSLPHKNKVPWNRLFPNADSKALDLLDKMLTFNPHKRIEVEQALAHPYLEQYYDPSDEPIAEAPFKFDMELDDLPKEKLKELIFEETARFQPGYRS

Mus musculus [3] = test: Toxicity in CD1 nu/nu mouse xenografted with human HCT116 cells assessed as mortality at 120 mg/kg, po BID administered on days 1 to 2 in weekly scheduling for 4 cycles; assay type: organism-based, HCT-116; parameters: dose 120 mg/kg, route oral; details: in vivo
Mus musculus [4] = test: Toxicity in CD1 nu/nu mouse xenografted with human HCT116 cells assessed as reversible body weight loss at 90 mg/kg, po once daily administered on days 1 to 2 in weekly scheduling for 4 cycles measured on day 36; details: in vivo
[5] = Inhibition of CK2 assessed as [33P]gamma-ATP incorporation into substrate after 60 mins by gamma counting
[6] = target: Cyclin-dependent kinase 1/cyclin B1 (Homo sapiens, UniProt P06493); test: Inhibition of CDK1/CYCB assessed as [33P]gamma-ATP incorporation into substrate after 60 mins by gamma counting; assay type: protein-complex assay
[7] = target: Maternal embryonic leucine zipper kinase (Homo sapiens, UniProt Q14680); test: Inhibition of MELK assessed as [33P]gamma-ATP incorporation into substrate after 60 mins by gamma counting
Ephrin type-A receptor 2 = Ephrin type-A receptor 2 (Homo sapiens, UniProt P29317); test: Inhibition of EphA2 assessed as [33P]gamma-ATP incorporation into substrate after 60 mins by gamma counting
[8] = target: Cyclin-dependent kinase 4/cyclin D1 (Homo sapiens, UniProt P11802); test: Inhibition of CDK4/CYCD1 assessed as [33P]gamma-ATP incorporation into substrate after 60 mins by gamma counting; assay type: protein-complex assay
[9] = target: RAC-alpha serine/threonine-protein kinase (Homo sapiens, UniProt P31749); test: Inhibition of AKT1 assessed as [33P]gamma-ATP incorporation into substrate after 60 mins by gamma counting
Chain of RAC-alpha serine/threonine-protein kinase (P31749 whole entry): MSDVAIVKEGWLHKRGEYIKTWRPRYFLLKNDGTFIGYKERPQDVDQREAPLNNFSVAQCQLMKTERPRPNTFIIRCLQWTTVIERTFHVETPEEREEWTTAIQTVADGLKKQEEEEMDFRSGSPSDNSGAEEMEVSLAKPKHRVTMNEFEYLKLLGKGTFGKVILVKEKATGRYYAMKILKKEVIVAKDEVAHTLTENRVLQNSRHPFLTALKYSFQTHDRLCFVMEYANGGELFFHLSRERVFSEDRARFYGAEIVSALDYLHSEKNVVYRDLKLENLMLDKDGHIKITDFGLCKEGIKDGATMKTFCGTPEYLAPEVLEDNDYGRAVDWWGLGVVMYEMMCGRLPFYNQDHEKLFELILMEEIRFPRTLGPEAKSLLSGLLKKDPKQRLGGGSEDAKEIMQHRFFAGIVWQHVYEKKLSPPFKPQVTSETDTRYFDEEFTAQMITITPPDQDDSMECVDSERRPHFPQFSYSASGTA

[10] = target: High affinity nerve growth factor receptor (Homo sapiens, UniProt P04629); test: Inhibition of TRKA assessed as [33P]gamma-ATP incorporation into substrate after 60 mins by gamma counting
Chain of High affinity nerve growth factor receptor (P04629 whole entry): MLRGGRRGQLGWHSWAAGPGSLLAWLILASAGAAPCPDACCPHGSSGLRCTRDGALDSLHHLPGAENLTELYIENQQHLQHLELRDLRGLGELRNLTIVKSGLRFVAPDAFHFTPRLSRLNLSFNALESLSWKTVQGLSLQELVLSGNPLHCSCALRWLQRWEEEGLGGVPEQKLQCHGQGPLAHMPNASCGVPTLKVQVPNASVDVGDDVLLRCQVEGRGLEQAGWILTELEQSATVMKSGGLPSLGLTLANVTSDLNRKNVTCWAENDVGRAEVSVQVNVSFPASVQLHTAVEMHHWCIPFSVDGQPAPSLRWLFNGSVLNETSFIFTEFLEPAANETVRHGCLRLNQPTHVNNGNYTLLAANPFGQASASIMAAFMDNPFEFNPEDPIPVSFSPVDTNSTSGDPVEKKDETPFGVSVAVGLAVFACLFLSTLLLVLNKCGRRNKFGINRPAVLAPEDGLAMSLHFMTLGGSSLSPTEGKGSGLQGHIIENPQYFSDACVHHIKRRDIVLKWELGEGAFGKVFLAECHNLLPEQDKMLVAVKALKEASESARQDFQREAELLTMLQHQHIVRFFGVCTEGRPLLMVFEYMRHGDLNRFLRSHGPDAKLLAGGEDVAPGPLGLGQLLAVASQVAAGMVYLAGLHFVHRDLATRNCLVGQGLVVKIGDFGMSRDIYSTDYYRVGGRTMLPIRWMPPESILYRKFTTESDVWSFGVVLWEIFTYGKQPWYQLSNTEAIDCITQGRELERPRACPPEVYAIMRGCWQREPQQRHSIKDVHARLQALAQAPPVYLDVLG

[11] = Intrinsic clearance in human liver microsomes at 1 uM; assay type: ADME, Microsome
[12] = target: MAP kinase-activated protein kinase 2 (Homo sapiens, UniProt P49137); test: Inhibition of MAPKAPK2 assessed as [33P]gamma-ATP incorporation into substrate after 60 mins by gamma counting
Chain of MAP kinase-activated protein kinase 2 (P49137 whole entry): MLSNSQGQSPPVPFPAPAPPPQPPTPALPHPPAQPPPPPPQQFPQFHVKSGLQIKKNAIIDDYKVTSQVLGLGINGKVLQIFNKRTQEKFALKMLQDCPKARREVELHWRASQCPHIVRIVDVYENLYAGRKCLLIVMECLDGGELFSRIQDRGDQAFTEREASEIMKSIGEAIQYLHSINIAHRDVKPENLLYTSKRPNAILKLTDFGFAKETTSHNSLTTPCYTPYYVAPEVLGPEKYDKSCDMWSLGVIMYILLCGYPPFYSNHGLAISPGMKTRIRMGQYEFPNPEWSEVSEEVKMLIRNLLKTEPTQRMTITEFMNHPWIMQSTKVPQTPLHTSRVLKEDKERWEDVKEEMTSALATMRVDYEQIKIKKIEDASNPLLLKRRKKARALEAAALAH

[13] = target: Eukaryotic elongation factor 2 kinase (Homo sapiens, UniProt O00418); test: Inhibition of EEF2K assessed as [33P]gamma-ATP incorporation into substrate after 60 mins by gamma counting
[14] = Inhibition of PDGFR assessed as [33P]gamma-ATP incorporation into substrate after 60 mins by gamma counting
[15] = Solubility of compound in 10% Tween 80; assay type: physicochemical
HCT-116 = test: Antitumor activity against human HCT116 cells xenografted in CD1 nu/nu mouse assessed as tumor growth inhibition at 90 mg/kg, po once daily administered on days 1 to 2 daily in weekly scheduling for 4 cycles measured on day 36; details: HCT-116, po, 864 h, read-out: TGI
[16] = target: Tyrosine-protein kinase ZAP-70 (Homo sapiens, UniProt P43403); test: Inhibition of ZAP70 assessed as [33P]gamma-ATP incorporation into substrate after 60 mins by gamma counting
[17] = target: Tyrosine-protein kinase JAK1 (Homo sapiens, UniProt P23458); test: Inhibition of JAK1 assessed as [33P]gamma-ATP incorporation into substrate after 60 mins by gamma counting
Chain of Tyrosine-protein kinase JAK1 (P23458 whole entry): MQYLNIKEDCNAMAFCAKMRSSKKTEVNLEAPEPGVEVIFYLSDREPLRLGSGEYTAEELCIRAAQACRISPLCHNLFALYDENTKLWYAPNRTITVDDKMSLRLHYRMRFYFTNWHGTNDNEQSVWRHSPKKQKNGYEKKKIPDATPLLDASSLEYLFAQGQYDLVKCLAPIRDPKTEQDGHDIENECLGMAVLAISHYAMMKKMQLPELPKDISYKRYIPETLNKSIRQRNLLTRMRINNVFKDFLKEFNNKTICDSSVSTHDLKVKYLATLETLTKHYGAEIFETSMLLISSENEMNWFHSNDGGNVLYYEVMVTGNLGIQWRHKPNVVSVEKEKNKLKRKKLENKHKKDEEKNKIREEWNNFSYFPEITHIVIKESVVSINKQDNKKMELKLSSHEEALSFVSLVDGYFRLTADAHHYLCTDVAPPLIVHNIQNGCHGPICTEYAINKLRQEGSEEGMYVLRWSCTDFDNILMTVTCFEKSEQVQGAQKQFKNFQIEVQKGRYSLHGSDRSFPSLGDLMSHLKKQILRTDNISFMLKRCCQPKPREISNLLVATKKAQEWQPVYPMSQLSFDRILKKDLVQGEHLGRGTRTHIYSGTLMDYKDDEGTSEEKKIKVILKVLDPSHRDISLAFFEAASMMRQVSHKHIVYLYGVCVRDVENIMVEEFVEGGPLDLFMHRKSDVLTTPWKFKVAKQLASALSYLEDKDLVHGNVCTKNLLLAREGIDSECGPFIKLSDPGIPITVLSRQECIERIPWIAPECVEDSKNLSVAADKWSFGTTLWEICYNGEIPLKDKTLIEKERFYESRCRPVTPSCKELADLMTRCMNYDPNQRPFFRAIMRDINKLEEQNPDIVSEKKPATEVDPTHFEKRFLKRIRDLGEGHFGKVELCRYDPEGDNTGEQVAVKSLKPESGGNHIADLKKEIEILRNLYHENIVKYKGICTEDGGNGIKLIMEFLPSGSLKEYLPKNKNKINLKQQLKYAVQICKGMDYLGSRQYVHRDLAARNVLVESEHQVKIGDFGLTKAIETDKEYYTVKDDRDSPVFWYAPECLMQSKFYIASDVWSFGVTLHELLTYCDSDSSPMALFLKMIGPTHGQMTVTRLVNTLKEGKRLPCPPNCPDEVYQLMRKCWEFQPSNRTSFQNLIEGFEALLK

[18] = target: Serine/threonine-protein kinase 26 (Homo sapiens, UniProt Q9P289); test: Inhibition of MST4 assessed as [33P]gamma-ATP incorporation into substrate after 60 mins by gamma counting
Chain of Serine/threonine-protein kinase 26 (Q9P289 whole entry): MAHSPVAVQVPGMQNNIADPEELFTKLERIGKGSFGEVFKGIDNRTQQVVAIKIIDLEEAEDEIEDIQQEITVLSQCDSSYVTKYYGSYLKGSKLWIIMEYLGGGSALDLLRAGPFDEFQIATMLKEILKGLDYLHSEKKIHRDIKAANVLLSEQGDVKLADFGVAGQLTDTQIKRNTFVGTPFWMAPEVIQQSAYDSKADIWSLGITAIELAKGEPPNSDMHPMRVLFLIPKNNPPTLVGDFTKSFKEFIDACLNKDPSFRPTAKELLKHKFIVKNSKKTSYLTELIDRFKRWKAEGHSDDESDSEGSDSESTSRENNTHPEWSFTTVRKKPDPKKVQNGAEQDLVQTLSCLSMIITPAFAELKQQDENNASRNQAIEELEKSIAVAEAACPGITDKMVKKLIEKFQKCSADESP

[19] = target: Serine/threonine-protein kinase PAK 4 (Homo sapiens, UniProt O96013); test: Inhibition of PAK4 assessed as [33P]gamma-ATP incorporation into substrate after 60 mins by gamma counting
Insulin receptor = Insulin receptor (Homo sapiens, UniProt P06213); test: Inhibition of IR assessed as [33P]gamma-ATP incorporation into substrate after 60 mins by gamma counting
Aurora kinase A = Aurora kinase A (Homo sapiens, UniProt O14965); test: Inhibition of Aur-A assessed as [33P]gamma-ATP incorporation into substrate after 60 mins by gamma counting
[20] = Solubility of compound at pH 7; assay type: physicochemical; details: buffer
[21] = target: Tyrosine-protein kinase JAK3 (Homo sapiens, UniProt P52333); test: Inhibition of JAK3 assessed as [33P]gamma-ATP incorporation into substrate after 60 mins by gamma counting
Chain of Tyrosine-protein kinase JAK3 (P52333 whole entry): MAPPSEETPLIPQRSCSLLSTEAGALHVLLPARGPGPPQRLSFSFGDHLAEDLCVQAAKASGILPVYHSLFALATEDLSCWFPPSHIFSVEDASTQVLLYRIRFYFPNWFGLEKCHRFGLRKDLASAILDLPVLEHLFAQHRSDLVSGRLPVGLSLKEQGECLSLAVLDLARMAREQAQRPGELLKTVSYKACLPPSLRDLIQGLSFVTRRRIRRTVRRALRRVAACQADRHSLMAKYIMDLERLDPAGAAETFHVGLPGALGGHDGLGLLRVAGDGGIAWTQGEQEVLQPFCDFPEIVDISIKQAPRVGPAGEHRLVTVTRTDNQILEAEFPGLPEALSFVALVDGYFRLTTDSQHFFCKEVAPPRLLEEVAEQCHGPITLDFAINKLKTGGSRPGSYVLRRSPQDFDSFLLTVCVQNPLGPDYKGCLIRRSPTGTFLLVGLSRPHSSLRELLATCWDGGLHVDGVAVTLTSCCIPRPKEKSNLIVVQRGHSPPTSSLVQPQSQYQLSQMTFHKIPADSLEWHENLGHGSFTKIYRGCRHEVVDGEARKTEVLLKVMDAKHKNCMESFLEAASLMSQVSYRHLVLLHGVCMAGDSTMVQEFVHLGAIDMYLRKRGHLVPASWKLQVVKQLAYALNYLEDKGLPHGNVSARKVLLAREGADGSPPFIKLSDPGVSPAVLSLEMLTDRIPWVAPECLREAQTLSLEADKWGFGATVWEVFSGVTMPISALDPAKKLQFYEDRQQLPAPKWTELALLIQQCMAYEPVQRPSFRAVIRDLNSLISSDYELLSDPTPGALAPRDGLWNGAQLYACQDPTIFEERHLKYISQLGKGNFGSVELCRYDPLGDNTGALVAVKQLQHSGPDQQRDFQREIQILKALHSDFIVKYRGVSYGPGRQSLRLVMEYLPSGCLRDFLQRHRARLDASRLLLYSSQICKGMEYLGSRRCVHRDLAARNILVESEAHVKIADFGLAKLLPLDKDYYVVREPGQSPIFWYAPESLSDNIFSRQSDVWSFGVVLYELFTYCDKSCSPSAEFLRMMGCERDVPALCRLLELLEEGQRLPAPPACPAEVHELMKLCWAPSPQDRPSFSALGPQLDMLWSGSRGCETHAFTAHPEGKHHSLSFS

[22] = Apparent permeability of the compound by PAMPA assay; assay type: ADME
[23] = target: cAMP-dependent protein kinase catalytic subunit alpha (Homo sapiens, UniProt P17612); test: Inhibition of PKAalpha assessed as [33P]gamma-ATP incorporation into substrate after 60 mins by gamma counting
[24] = target: Eukaryotic translation initiation factor 2-alpha kinase 3 (Homo sapiens, UniProt Q9NZJ5); test: Inhibition of PERK assessed as [33P]gamma-ATP incorporation into substrate after 60 mins by gamma counting
[25] = target: Hepatocyte growth factor receptor (Homo sapiens, UniProt P08581); test: Inhibition of MET assessed as [33P]gamma-ATP incorporation into substrate after 60 mins by gamma counting
[26] = target: Proto-oncogene tyrosine-protein kinase ROS (Homo sapiens, UniProt P08922); test: Inhibition of ROS1 assessed as [33P]gamma-ATP incorporation into substrate after 60 mins by gamma counting
[27] = target: Serine/threonine-protein kinase pim-1 (Homo sapiens, UniProt P11309); test: Inhibition of PIM1 assessed as [33P]gamma-ATP incorporation into substrate after 60 mins by gamma counting
Chain of Serine/threonine-protein kinase pim-1 (P11309 whole entry): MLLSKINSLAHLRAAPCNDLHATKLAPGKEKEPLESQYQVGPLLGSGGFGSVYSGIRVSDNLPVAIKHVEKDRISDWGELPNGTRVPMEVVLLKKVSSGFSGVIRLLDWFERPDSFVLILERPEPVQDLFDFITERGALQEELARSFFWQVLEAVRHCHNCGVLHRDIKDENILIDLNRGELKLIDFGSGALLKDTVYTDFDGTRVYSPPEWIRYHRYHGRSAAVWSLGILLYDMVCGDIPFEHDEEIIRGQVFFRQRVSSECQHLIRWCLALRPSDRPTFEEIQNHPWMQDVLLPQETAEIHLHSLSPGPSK

Compound: CN1CCN(c2ccc(OC(F)(F)F)c(Nc3ncc4c(n3)-c3c(c(C(N)=O)nn3CCO)CC4)c2)CC1 [ONVANSERTIB]
- IC50 [1]: > 10 µM
- Papp (Caco-2): permeable
- IC50 [2]: > 10 µM
- Activity (Mus musculus [3]): Non-toxic
- Activity (Mus musculus [4]): 10%
- IC50 [5]: 0.826 µM
- IC50 [6]: > 10 µM
- IC50 (Ephrin type-A receptor 2): > 10 µM
- IC50 [8]: > 10 µM
- IC50 [9]: > 10 µM
- IC50 [10]: > 10 µM
- CLint scaled at 1 µM [11]: 16.9 mL/min/kg
- IC50 [12]: > 10 µM
- IC50 [13]: > 10 µM
- IC50 [14]: > 10 µM
- solubility [15]: > 3400 µg/mL
- inhibition in vivo at 90 mg/kg (HCT-116): 71%
- IC50 [16]: > 10 µM
- IC50 [17]: > 10 µM
- IC50 [18]: > 10 µM
- IC50 [19]: > 10 µM
- IC50 (Insulin receptor): > 10 µM
- IC50 (Aurora kinase A): > 10 µM
- solubility [20]: 201 µM (≈ 107 µg/mL)
- IC50 [21]: > 10 µM
- Papp [22]: 49.6 ×10⁻⁶ cm/s
- IC50 [23]: > 10 µM
- IC50 [24]: > 10 µM
- IC50 [25]: > 10 µM
- IC50 [26]: > 10 µM
- IC50 [27]: > 10 µM
